Laboratory results as given in patent publication US9365489B2, “Nitrooxy alkanoic acids and derivatives thereof in feed for reducing methane emission in ruminants, and/or to improve ruminant performance” (priority 2009, dated 2016).
Marks after values point to notes of the source that are not given here.

Tested on: methane emissions by sheep
Assay: In vivo test for methane inhibition: methane emissions in chambers
Conditions: for CH4, l/kg BW / CH4, l/day / CH4, l/kg DMI: average of 3 consecutive days; for CH4, l/kg BW: control 0.59; for CH4, l/day: control 25.5; for CH4, l/kg DMI: control 31.5; for reduction of methane emissions: vs control
Text: The experimental design consisted of a cross-over design with 2 sheep per treatment in each period. The trial consisted in 3 consecutive periods of: 14 days of adaptation to the dose plus three consecutive days of methane measurements in chambers. This 14 days adaptation phase was established as the period necessary for wash out between different doses assayed in consecutive periods. During the last two days of methane measurements in chambers rumen contents samples were collected two hours after the morning feeding, sub sampled and immediately frozen prior DNA extraction and determination of volatile fatty acids and ammonia nitrogen concentration. Experimental animals were randomly allocated in three sub-groups of 2 animals and were assigned one of the three treatments (control, dose 1 and dose 2). The 3 sub-groups started the adaptation period with a gap of three days so they had the same number of adaptation days prior to methane measurement in the chambers. Each animal was held in cages with constant access to fresh water. The diet provided to the animals consisted of alfalfa hay chopped at 15 to 20 cm and concentrate in a proportion 1:1 at approximately 1.1 times the energy requirements maintenance level (Prieto et al, 1990) plus mineral-vitamin supplement. Fresh matter intake was monitored daily for each animal throughout the trial. The diet was provided to animals in two equal meals at 9.00 h and 14.00 h.
The additive was provided twice a day through the ruminal cannula at the same time as the diet. The corresponding amount to each dose was added into 10 grams of grounded concentrate and wrapped in cellulose paper immediately before it was placed in the rumen. In order to avoid the volatility of the active molecule, both additives were kept in a cold room at 4° C. where the daily process of dispensing it in the cellulose bags was carried out.
The doses were 50 (dose 1) and 500 (dose 2) mg/animal per day. The higher dose was reached after 3 days of gradual increases (50, 200 and 500 mg), so the whole adaptation period was consequently extended for 3 more days.
On day 14 animals were introduced in the chambers for methane measurements for 3 consecutive days. Each chamber measured 1.8 m wide×1.8 m deep×1.5 m tall. Chamber air temperature was maintained between 15 and 20° C. Within each chamber, the animals were individually restrained in the same cages as in the adaptation period. Interruptions occurred daily at 8.30 h, when the chamber floor was cleaned, and the animals were fed. These interruptions had little impact on the daily emissions because fluxes were calculated three times per day and then averaged to derive the 23-hour emission value. Airflow and concentration of methane was measured for the intake and exhaust ducts of each chamber. Air velocity was continuously monitored over the day in each intake and exhaust duct for each chamber. The air stream in each of the 3 ducts (chamber 1, chamber 2 and background) was sub-sampled, and methane concentration was measured continuously using a gas analyzer ADM MGA3000 (Spurling works, Herts, UK). It took 8 min. to sequentially sample the airflow in all intake and exhaust ducts in both chambers (3 min. in chambers 1 and 2, 2 min for background). In summary, the flux of methane for each chamber was calculated for each of the 3-day periods of measurement from the difference of fresh-air input and chamber exhaust methane concentrations and mean air velocities.
Individual methane emissions, VFA profiles, ratio of acetate to propionate, ammonia N concentration, and log10 transformations of concentration of total bacteria, total protozoa and methanogenic archaea were analyzed for the following effects: additive dose, day of measurement, and their interaction using a repeated measures analysis of variance under the cross-over design arrangement of the experiment. The standard error of the mean (SEM) was computed for each analysis. […]

CCOC(=O)CCO[N+](=O)[O-] [Ethyl-3-nitrooxy propionate]
CH4, l/kg BW (Dose 1 (50 mg/animal per day)): 0.51^ab l/kg BW
CH4, l/day (Dose 1 (50 mg/animal per day)): 22.3^ab l/day
CH4, l/kg DMI (Dose 1 (50 mg/animal per day)): 26.0^ab l/kg DMI
CH4, l/kg BW (Dose 2 (500 mg/animal per day)): 0.42^b l/kg BW
CH4, l/day (Dose 2 (500 mg/animal per day)): 18^b l/day
CH4, l/kg DMI (Dose 2 (500 mg/animal per day)): 22.2^b l/kg DMI
reduction of methane emissions (dose 1 (50 mg/animal per day)): 18%
reduction of methane emissions (dose 2 (500 mg/animal per day), P<0.05): 29%
inhibition of methanogenesis (conclusion in words) (sheep, 50 and 500 mg/animal per day): strong inhibitor of methanogenesis
